From PubChem BioAssay AID330 (DTP/NCI, 2004)
Several values for one entry are separate records, joined by “and”; a condition that tells them apart may be missing. Equal values may be shown once. Inconclusive results and toxic doses are left out. Rule for the calls: active = survival T/C of 150% or more; inactive = T/C below 125% in these data.

System: P388 leukemia ip, CD2F1 mice, survival T/C
Assay: NCI In Vivo Anticancer Drug Screen. Data for tumor model P388 Leukemia (intraperitoneal) in CD2F1 (CDF1) mice
Settings: endpoint: median survival time, higher = longer survival
In short: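 Mice carrying the transplanted tumor received test compound or vehicle. Survival was recorded in each group, and the value is the treated-group measurement divided by that of the vehicle-treated control group.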

[1] = dose: 100.0 mg/kg/injection, schedule: Q01DX001 (ip), vehicle: Klucel (hydroxypropylcellulose) (HPC)
[2] = dose: 200.0 mg/kg/injection, schedule: Q01DX001 (ip), vehicle: Klucel (hydroxypropylcellulose) (HPC)
[3] = dose: 60.0 mg/kg/injection, schedule: Q01DX005 (ip), vehicle: saline with Tween-80
[4] = dose: 120.0 mg/kg/injection, schedule: Q01DX005 (ip), vehicle: saline with Tween-80
[5] = dose: 25.0 mg/kg/injection, schedule: Q01DX009 (ip), vehicle: saline with Tween-80
[6] = dose: 50.0 mg/kg/injection, schedule: Q01DX009 (ip), vehicle: saline with Tween-80
[7] = dose: 100.0 mg/kg/injection, schedule: Q01DX009 (ip), vehicle: saline with Tween-80
[8] = dose: 200.0 mg/kg/injection, schedule: Q01DX009 (ip), vehicle: saline with Tween-80
[9] = dose: 50.0 mg/kg/injection, schedule: Q01DX009 (ip), vehicle: Klucel (hydroxypropylcellulose) (HPC)
[10] = dose: 100.0 mg/kg/injection, schedule: Q01DX009 (ip), vehicle: Klucel (hydroxypropylcellulose) (HPC)
[11] = dose: 200.0 mg/kg/injection, schedule: Q01DX009 (ip), vehicle: Klucel (hydroxypropylcellulose) (HPC)
[12] = dose: 3.75 mg/kg/injection, schedule: Q01DX005 (ip), vehicle: Klucel (hydroxypropylcellulose) (HPC)
[13] = dose: 7.5 mg/kg/injection, schedule: Q01DX005 (ip), vehicle: Klucel (hydroxypropylcellulose) (HPC)
[14] = dose: 15.0 mg/kg/injection, schedule: Q01DX005 (ip), vehicle: Klucel (hydroxypropylcellulose) (HPC)

Measured: T/C

CN(O)C(=O)C(C)(C)C
inactive: dose: 100.0 mg/kg/injection, schedule: Q01DX005 (ip), vehicle: saline with Tween-80 99 % of control | dose: 200.0 mg/kg/injection, schedule: Q01DX005 (ip), vehicle: saline with Tween-80 103 % of control | dose: 400.0 mg/kg/injection, schedule: Q01DX005 (ip), vehicle: saline with Tween-80 103 % of control

CN1CCc2cc3c(cc2C(=O)Cc2ccc4c(c2C1)OCO4)OCO3
inactive: dose: 25.0 mg/kg/injection, schedule: Q04DX003 (ip), vehicle: saline with Tween-80 95 % of control | dose: 50.0 mg/kg/injection, schedule: Q04DX003 (ip), vehicle: saline with Tween-80 90 % of control | dose: 100.0 mg/kg/injection, schedule: Q04DX003 (ip), vehicle: saline with Tween-80 90 % of control

NC(CSCCCSCC(N)C(=O)O)C(=O)O (stereo unspecified)
inactive: dose: 25.0 mg/kg/injection, schedule: Q01DX001 (ip), vehicle: Klucel (hydroxypropylcellulose) (HPC) 97 % of control | dose: 50.0 mg/kg/injection, schedule: Q01DX001 (ip), vehicle: Klucel (hydroxypropylcellulose) (HPC) 97 % of control | [1] 96 % of control and 97 % of control | [2] 104 % of control

C/C(=N/N=C(N)N)c1cnc(N/N=C(\C)c2cnc(NN)nc2C)nc1C
inactive: dose: 7.5 mg/kg/injection, schedule: Q01DX005 (ip), vehicle: saline 103 % of control | dose: 15.0 mg/kg/injection, schedule: Q01DX005 (ip), vehicle: saline 94 % of control | dose: 30.0 mg/kg/injection, schedule: Q01DX005 (ip), vehicle: saline 97 % of control

N#Cc1ccc(OC(=O)Nc2ccccc2C(F)(F)F)cc1
inactive: [3] 86 % of control | [4] 87 % of control

Clc1ccc(N=Cc2ccc(C=Nc3ccc(Cl)c(Cl)c3)cc2)cc1Cl
inactive: [5] 103 % of control | [6] 90 % of control | [7] 88 % of control | [8] 94 % of control

CCCCCCCCCC(=O)Oc1cccc2c1CC(C[Se]c1ccccc1)C(=O)O2 (stereo unspecified)
inactive: dose: 1.88 mg/kg/injection, schedule: Q01DX005 (ip), vehicle: saline with Tween-80 97 % of control | dose: 3.75 mg/kg/injection, schedule: Q01DX005 (ip), vehicle: saline with Tween-80 101 % of control | dose: 7.5 mg/kg/injection, schedule: Q01DX005 (ip), vehicle: saline with Tween-80 89 % of control and 91 % of control

COC(=O)c1ccc(C(=O)OC)c2nc3cc([N+](=O)[O-])ccc3nc12
inactive: dose: 60.0 mg/kg/injection, schedule: Q01DX005 (ip), vehicle: suspension in saline 100 % of control | dose: 120.0 mg/kg/injection, schedule: Q01DX005 (ip), vehicle: suspension in saline 102 % of control

CCCCOP(=O)(O)OCCCC.[V]
inactive: dose: 6.25 mg/kg/injection, schedule: Q01DX009 (ip), vehicle: saline with Tween-80 99 % of control | dose: 12.5 mg/kg/injection, schedule: Q01DX009 (ip), vehicle: saline with Tween-80 96 % of control | [5] 97 % of control | [7] 104 % of control | [8] 103 % of control

CC(=O)C1(O)CCCC(OC2CC(N)C(O)C(C)O2)C1 (stereo unspecified)
inactive: dose: 6.25 mg/kg/injection, schedule: Q01DX009 (ip), vehicle: water 100 % of control | dose: 12.5 mg/kg/injection, schedule: Q01DX009 (ip), vehicle: water 95 % of control | dose: 25.0 mg/kg/injection, schedule: Q01DX009 (ip), vehicle: water 104 % of control | dose: 50.0 mg/kg/injection, schedule: Q01DX009 (ip), vehicle: water 113 % of control | dose: 100.0 mg/kg/injection, schedule: Q01DX009 (ip), vehicle: water 113 % of control

NC(COC(=O)NCCCl)C(=O)O (stereo unspecified)
inactive: [9] 88 % of control | [10] 93 % of control | [11] 111 % of control

CC(C)C12CC(COCc3ccccc3)OC1=NC(=O)NC2=O (stereo unspecified)
inactive: [9] 112 % of control | [10] 103 % of control | [11] 94 % of control

C=CC1C(OC2OC(CO)C(O)C(O)C2O)OC=C(C(=O)OC)C1CC1CC(=O)CC(CC(=O)CCc2ccc(O)cc2)O1 (stereo unspecified)
inactive: dose: 18.75 mg/kg/injection, schedule: Q01DX005 (ip), vehicle: water 98 % of control | dose: 37.5 mg/kg/injection, schedule: Q01DX005 (ip), vehicle: water 101 % of control | dose: 75.0 mg/kg/injection, schedule: Q01DX005 (ip), vehicle: water 101 % of control | dose: 150.0 mg/kg/injection, schedule: Q01DX005 (ip), vehicle: water 101 % of control

CC(=O)[C@]1(O)Cc2c(O)c3c(c(O)c2[C@@H](OC2CC(N)C(O)C(C)O2)C1)C(=O)c1c(OCC(C)C)cccc1C3=O (stereo partly specified)
inactive: dose: 3.13 mg/kg/injection, schedule: Q04DX003 (ip), vehicle: water 107 % of control and 110 % of control | dose: 6.25 mg/kg/injection, schedule: Q04DX003 (ip), vehicle: water 105 % of control and 119 % of control | dose: 12.5 mg/kg/injection, schedule: Q04DX003 (ip), vehicle: water 101 % of control | dose: 25.0 mg/kg/injection, schedule: Q04DX003 (ip), vehicle: water 121 % of control | dose: 50.0 mg/kg/injection, schedule: Q04DX003 (ip), vehicle: water 101 % of control and 89 % of control

O[C@@H]1CCC[C@@H]2O[C@H]12
inactive: dose: 100.0 mg/kg/injection, schedule: Q04DX002 (ip), vehicle: saline 102 % of control | dose: 200.0 mg/kg/injection, schedule: Q04DX002 (ip), vehicle: saline 103 % of control | dose: 400.0 mg/kg/injection, schedule: Q04DX002 (ip), vehicle: saline 109 % of control

Cc1c(N=Nc2ccccc2[N+](=O)[O-])c(-c2ccccc2)nn1C(N)=S
inactive: [1] 114 % of control | [2] 114 % of control | dose: 400.0 mg/kg/injection, schedule: Q01DX001 (ip), vehicle: Klucel (hydroxypropylcellulose) (HPC) 108 % of control

COC(=O)CN(CCCl)P1(=O)OCCCN1CCCl (stereo unspecified)
inactive: [3] 97 % of control | [4] 108 % of control

OCc1c(Cl)n(-c2ccccc2)c2ccccc12
inactive: dose: 100.0 mg/kg/injection, schedule: Q04DX002 (ip), vehicle: Klucel (hydroxypropylcellulose) (HPC) 96 % of control | dose: 400.0 mg/kg/injection, schedule: Q04DX002 (ip), vehicle: Klucel (hydroxypropylcellulose) (HPC) 98 % of control

CCCCCn1cnc2cc(N3CCOCC3)c([N+](=O)[O-])cc2c1=O
inactive: dose: 100.0 mg/kg/injection, schedule: Q04DX003 (ip), vehicle: Klucel (hydroxypropylcellulose) (HPC) 103 % of control | dose: 200.0 mg/kg/injection, schedule: Q04DX003 (ip), vehicle: Klucel (hydroxypropylcellulose) (HPC) 96 % of control | dose: 400.0 mg/kg/injection, schedule: Q04DX003 (ip), vehicle: Klucel (hydroxypropylcellulose) (HPC) 96 % of control

CCOc1c(N=Nc2ccccc2O)c(C)nn1C(N)=S
inactive: [12] 103 % of control | [13] 102 % of control | [14] 104 % of control and 95 % of control

CN(C)C(=[Se])[Se]C(=[Se])N(C)C
inactive: [12] 99 % of control | [13] 99 % of control | [14] 100 % of control

COc1ccc(C(=O)C2Cc3c(ccc4ccccc34)OC2=O)cc1 (stereo unspecified)
inactive: [6] 95 % of control | [7] 91 % of control | [8] 88 % of control
